In patent US6461619B1 (Somerset Pharmaceuticals, Inc., priority 1998, dated 2002):
Counter-ions that a name gives are not always drawn.

Assays:
[1] = system: superoxide dysmutase, catalase and glutathione peroxidase; conditions: background statement (Jenner, et al.); cited from earlier work
[2] = system: second-degree burn wounds; assay: second-degree burn wound model, epidermal migration (epithelization) assessment; type: in vivo, Swine; conditions: for Percent of wounds completely epithelized / number of wounds healed (completely epithelized) over the number of wounds assessed: pig
Description: The ability of selegiline and desmethylselegiline to assist in the healing of burns was tested using a second-degree burn wound model. In second-degree burns, the entire surface of the epidermis is destroyed. An epidermal covering is regenerated from the remaining epithelial and epidermal cells adjacent to the burns. This phase of the healing process is called epithelization.
Swine were used for the experimental research animal because their skin has many morphological similarities to human skin. Seven young female specific pathogen free (SPF:Ken-O-Kaw Farms, Windsor, Ill.) pigs weighing 25-30 kg were kept in house for two weeks prior to initiating the experiment. These animals were fed a basal diet ad libitum and housed individually in facilities with controlled temperature (19-21° C.) and lights (12 h/12 h LD).
Experimental animals were clipped with standard animal clippers on the day of the experiment. The skin on the back and both sides of the animal was prepared for wounding by washing with a non-antibiotic soap and sterile water. Each animal was anesthetized i.m. with ketamine-HCl (20 mg/kg), xylazine (2 mg/kg) and atropine (0.05 mg/kg), followed by mask inhalation of an isoflurane and oxygen combination. Five specifically designed cylindrical brass rods weighing 358 g each were heated in a boiling water bath to 100° C. A rod was removed from the water bath and wiped dry before being applied to the skin surface to prevent water droplets from creating a steam burn on the skin. The brass rod was held at a vertical position on the skin for six seconds with all pressure being supplied by gravity in order to make a burn 8.5 mm diameter×0.8 mm deep. Immediately after burning, the roof of the burn blister was removed with a sterile spatula. The burn wounds were made approximately 2 cm from each other.
Approximately 90 burn wounds were made on the anterior two-thirds of the animal. The posterior third of the animal cannot be used because of anatomical differences in burn wound healing (a more rapid healing of burns has been observed at that position).
A total of seven animals were used and a total of fifteen wounds per treatment group were analyzed on each of days 7-12 after wounding. Treatments were coded to maintain blind study compliance. The burn wounds were treated with 25 ug of test article (enough to cover each wound). Treatments were allowed to penetrate into the sites for at least a 20 minute time period. Each treatment was applied within 20 minutes of blister removal and treatment occurred once a day for the first five days.
Beginning on day seven after wounding (day 0) and each day thereafter for four to six days, five burn wounds and the surrounding normal skin from each treatment area were excised using an electrokeratome. Any specimens that were not excised intact were discarded. The excised wounds and the surrounding normal skin were incubated in 0.5 M NaBr for 24 hours at 37° C. After incubation, the specimens were separated into epidermal and dermal sheets. The epidermis was examined macroscopically for defects in the area of the burn wounds. Epithelization was considered complete if no defect was present (healed). […] The epidermal sheet was placed on cardboard for a permanent record.
The number of wounds healed (completely epithelized) were divided by the total number of wounds sampled per day and multiplied by 100.

[3] = 10^-4M topical, day 7 after burning
[4] = 10^-4M topical, day 8 after burning
[5] = 10^-4M topical, day 9 after burning
[6] = 10^-4M topical, day 10 after burning
[7] = 10^-4M topical, day 11 after burning
[8] = 10^-4M topical, day 12 after burning
[9] = 10^-4M topical, day 13 after burning
[10] = 10^-6M topical, day 7 after burning
[11] = 10^-6M topical, day 8 after burning
[12] = 10^-6M topical, day 9 after burning
[13] = 10^-6M topical, day 10 after burning
[14] = 10^-6M topical, day 11 after burning
[15] = 10^-6M topical, day 12 after burning
[16] = 10^-6M topical, day 13 after burning
[17] = 10^-8M topical, day 7 after burning
[18] = 10^-8M topical, day 8 after burning
[19] = 10^-8M topical, day 9 after burning
[20] = 10^-8M topical, day 10 after burning
[21] = 10^-8M topical, day 11 after burning
[22] = 10^-8M topical, day 12 after burning
[23] = 10^-8M topical, day 13 after burning

## C#CCN(C)[C@H](C)Cc1ccccc1 [selegiline HCl, selegiline]
[1]
  activity of the endogenous anti-oxidants superoxide dysmutase, catalase and glutathione peroxidase: increase the activity
[2]; 10^-4 M and 10^-6 M
  initiation of epithelization compared with other treatment groups: earlier time point than all other treatment groups
[2]; [3]
  Percent of wounds completely epithelized: (0%)
  number of wounds healed (completely epithelized) over the number of wounds assessed:  0/15
[2]; [4]
  Percent of wounds completely epithelized: (0%)
  number of wounds healed (completely epithelized) over the number of wounds assessed:  0/15
[2]; [5]
  Percent of wounds completely epithelized: (0%)
  number of wounds healed (completely epithelized) over the number of wounds assessed:  0/15
[2]; [6]
  Percent of wounds completely epithelized: 20%
  number of wounds healed (completely epithelized) over the number of wounds assessed:  3/15
[2]; 10^-4M topical, day 10 after burning, listed as A-1
  Percent of wounds completely epithelized: (20%)
[2]; [7]
  Percent of wounds completely epithelized: 33%
  number of wounds healed (completely epithelized) over the number of wounds assessed:  5/15
[2]; 10^-4M topical, day 11 after burning, listed as A-1
  Percent of wounds completely epithelized: (33%)
[2]; [8]
  Percent of wounds completely epithelized: 33%
  number of wounds healed (completely epithelized) over the number of wounds assessed:  6/15
[2]; 10^-4M topical, day 12 after burning, listed as A-1
  Percent of wounds completely epithelized: (40%)
[2]; [9]
  Percent of wounds completely epithelized: 33%
  number of wounds healed (completely epithelized) over the number of wounds assessed:  6/15
[2]; 10^-4M topical, day 13 after burning, listed as A-1
  Percent of wounds completely epithelized: (40%)
[2]; [10]
  Percent of wounds completely epithelized: (0%)
  number of wounds healed (completely epithelized) over the number of wounds assessed:  0/15
[2]; [11]
  Percent of wounds completely epithelized: (0%)
  number of wounds healed (completely epithelized) over the number of wounds assessed:  0/15
[2]; [12]
  Percent of wounds completely epithelized: (0%)
  number of wounds healed (completely epithelized) over the number of wounds assessed:  0/15
[2]; [13]
  Percent of wounds completely epithelized: 20%
  number of wounds healed (completely epithelized) over the number of wounds assessed:  3/15
[2]; 10^-6M topical, day 10 after burning, listed as A-2
  Percent of wounds completely epithelized: (20%)
[2]; [14]
  Percent of wounds completely epithelized: 33%
  number of wounds healed (completely epithelized) over the number of wounds assessed:  5/15
[2]; 10^-6M topical, day 11 after burning, listed as A-2
  Percent of wounds completely epithelized: (33%)
[2]; [15]
  Percent of wounds completely epithelized: 40%
  number of wounds healed (completely epithelized) over the number of wounds assessed:  6/15
[2]; 10^-6M topical, day 12 after burning, listed as A-2
  Percent of wounds completely epithelized: (40%)
[2]; [16]
  Percent of wounds completely epithelized: 40%
  number of wounds healed (completely epithelized) over the number of wounds assessed:  6/15
[2]; 10^-6M topical, day 13 after burning, listed as A-2
  Percent of wounds completely epithelized: (40%)
[2]; [17]
  Percent of wounds completely epithelized: (0%)
  number of wounds healed (completely epithelized) over the number of wounds assessed:  0/15
[2]; [18]
  Percent of wounds completely epithelized: (0%)
  number of wounds healed (completely epithelized) over the number of wounds assessed:  0/15
[2]; [19]
  Percent of wounds completely epithelized: (0%)
  number of wounds healed (completely epithelized) over the number of wounds assessed:  0/15
[2]; [20]
  Percent of wounds completely epithelized: (0%)
  number of wounds healed (completely epithelized) over the number of wounds assessed:  0/15
[2]; [21]
  Percent of wounds completely epithelized: None
  number of wounds healed (completely epithelized) over the number of wounds assessed:  0/15
[2]; 10^-8M topical, day 11 after burning, listed as A-3
  Percent of wounds completely epithelized: (0%)
[2]; [22]
  Percent of wounds completely epithelized: 7%
  number of wounds healed (completely epithelized) over the number of wounds assessed:  1/15
[2]; 10^-8M topical, day 12 after burning, listed as A-3
  Percent of wounds completely epithelized: (7%)
[2]; [23]
  Percent of wounds completely epithelized: Thirty-eight
  number of wounds healed (completely epithelized) over the number of wounds assessed:  6/16
[2]; 10^-8M topical, day 13 after burning, listed as A-3
  Percent of wounds completely epithelized: (38%)
[2]; first three days of treatment, normal again after 15 minutes
  wound crust colour during absorption of applied agent: more pronounced
